Where “and” joins values, the source holds several entries; their conditions need not be identical. Equal values may be shown once.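 Assay format: 96-well plates, 48-hour exposure. GI50 is the concentration that inhibits growth by half. TGI denotes the concentration required for complete inhibition of growth.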
How the values were obtained:
Test in all cases: growth of human tumour cells (NCI), 48 h
HCC-2998 colon = system: HCC-2998 colon
HS 578T breast = system: HS 578T breast
K-562 leukemia = system: K-562 leukemia
U251 CNS = system: U251 CNS
NCI-H460 lung = system: NCI-H460 lung
PC-3 prostate = system: PC-3 prostate
NCI/ADR-RES ovarian = system: NCI/ADR-RES ovarian
LOX IMVI melanoma = system: LOX IMVI melanoma
HCT-15 colon = system: HCT-15 colon
UO-31 renal = system: UO-31 renal

SMILES | GI50 (HCC-2998 colon) [µM] | TGI (HCC-2998 colon) [µM] | GI50 (HS 578T breast) [µM] | TGI (HS 578T breast) | GI50 (K-562 leukemia) [µM] | TGI (K-562 leukemia) | GI50 (U251 CNS) [µM] | TGI (U251 CNS) [µM] | GI50 (NCI-H460 lung) [µM] | TGI (NCI-H460 lung) [µM] | GI50 (PC-3 prostate) [µM] | TGI (PC-3 prostate) [µM] | GI50 (NCI/ADR-RES ovarian) [µM] | TGI (NCI/ADR-RES ovarian) | GI50 (LOX IMVI melanoma) [µM] | TGI (LOX IMVI melanoma) | GI50 (HCT-15 colon) [µM] | TGI (HCT-15 colon) | GI50 (UO-31 renal) [µM] | TGI (UO-31 renal)
CC(=O)O.CN1[CH-]N(Cc2ccc(C#N)cc2)c2ccccc21.[Ag+] | > 100 | > 100 | > 100 | > 100 µM | 18 | 46 µM | 17.2 | 36.4 | > 100 | > 100 | 13.5 | 28.5 | > 100 | > 100 µM | 15.6 | 36.2 µM | 18 | 38 µM | 16.2 | 30.3 µM
O=C(O)Cc1cccc2c(=O)cc(-c3ccccc3)oc12 | > 1000 | > 1000 | 415 | 209 µM and 889 µM | 148 | 250 µM and > 844 µM | 360 | > 1000 | 545 | > 1000 | > 955 | > 1000 | 194 | 250 µM and > 1000 µM | 280 | 250 µM and > 909 µM | 343 | 250 µM and > 1000 µM | 25.5 | > 64.4 µM and 174 µM and 334 µM
O=C1Nc2c(Cl)cc(Cl)cc2/C1=N/N=C/c1ccco1 |  | > 100 |  | > 100 µM |  | > 100 µM |  | > 100 |  | > 100 |  | > 100 |  | 82.1 µM |  | 35 µM |  | > 100 µM |  | 55.4 µM
CCOC(=O)c1[nH]c2cc(Cl)ccc2c1[C@@H](C(=O)NC(C)(C)C)N(CC)C(=O)CCCCC#Cc1cccc2c1CN(C1CCC(=O)NC1=O)C2=O (stereo not given in full) | 0.225 | 58 | < 0.01 | 6.66 µM | 1.52 | > 100 µM | 1.84 | 18.1 | 3.11 | > 54.3 | < 0.01 | 9.36 | 1.19 | > 100 µM | 3.18 | > 86.5 µM | 0.048 | > 33.2 µM | 0.0425 | 2.95 µM
CC1=CCC2CC1C(C(=O)c1c[nH]c3ccccc13)=NC2(C)C (stereo not given) |  | > 100 |  | > 100 µM |  | > 100 µM |  | > 100 |  | > 100 |  | > 100 |  | > 100 µM |  | > 100 µM |  | > 100 µM |  | > 100 µM
COc1ccc(Nc2nc(NCCNc3ccnc4cc(Cl)ccc34)nc(N3CCOCC3)n2)cc1 | 2.08 | 3.88 | 3.91 | 24.1 µM | 2.09 | 7.82 µM | 3.1 | 15.4 | 4.58 | 19.3 | 3.94 | 19.8 | 6.38 | 24.9 µM | 3.01 | 10.6 µM | 2.63 | 10.9 µM | 1.33 | 14.2 µM
COc1ccc(-c2ncnc3c2ncn3CC#CCCl)cc1 | 17.6 | 31.8 | 3.8 | 22.1 µM | 8.06 | > 100 µM | 1.96 | 4.85 | 3.27 | 12.4 | 6.82 | 24.7 | 2.72 | 8.15 µM | 1.77 | 3.52 µM | 4.07 | 17.7 µM | 2.43 | 15.3 µM

From PubChem BioAssay (NCI)
